According to patent US11857570B2, “Natural composition for use in gynecology” (Organicare LLC, priority 2017, dated 2024):

How the values were obtained:
[1] = test system: transformed human vaginal epithelial cells (Episkin); experiment: Cell survival test (MTT) with three-dimensional vaginal epithelium reconstructed in vitro; format: cell-based
Description: The potential skin irritation on the vaginal epithelium was evaluated in vitro by means of a cytotoxicity assay: cell survival test with three-dimensional vaginal epithelium reconstructed in vitro (MTT test). The three-dimensional cell model used in the test consists of 0.5 cm^2 diameter units of cultures of transformed human vaginal epithelial cells, maintained for 5 days in a chemically defined culture medium and in contact with air on inert polycarbonate filters. The model was purchased from Episkin® (Lyons, lot 16-HVE-015).
Sodium lauryl sulphate (SLS) dissolved at 0.5% by weight in a phosphate buffer (Euroclone) was used as a positive control. The phosphate buffer was used on its own as a negative control. Exposure took place for 1 and 6 hours at about 37° C., 5% CO2. At the end of exposure, the epithelium was washed with phosphate buffer. The epithelium was incubated for 3 h at 37° C. with a 1 mg/ml solution of MTT (3-[4,5-dimethylthiazol-2-yl]-2,5-diphenyltetrazoliumbromide).
The solution was subsequently removed and replaced with isopropanol, with […]
successive hours of incubation at room temperature. 2 aliquots of each epithelium were transferred into a 96-well plate for the absorbance reading, which was carried out at a wavelength of 570 nm with a Tecan Sunrise remote colorimeter, equipped with a plate reader.
Through the creation of a dose-response curve, the cytotoxicity data obtained with the MTT test (Table 5) make it possible to determine the theoretical value of ET50, that is, the time in minutes that induces a 50% reduction in cell viability in the epithelium compared to untreatedcells.

bacterial vaginosis = conditions: at 3 months; cited from earlier work

SMILES | % mean cell viability 1 h treatment ([1]; MTT, 1 h exposure, reconstructed human vaginal epithelium) [%] | % mean cell viability 6 h treatment ([1]; MTT, 6 h exposure, reconstructed human vaginal epithelium) [%] | ET50 ([1]; time that induces a 50% reduction in cell viability compared to untreated cells) [min] | risk of relapse (bacterial vaginosis)
CCCCCCCCCCCCOS(=O)(=O)[O-].[Na+] [Positive control, Sodium lauryl sulphate] | 8.26 | 6.54 | 32.70 | –
Cc1ncc([N+](=O)[O-])n1CCO [metronidazole] | – | – | – | 33 % of women
